{"source": "patent US20190374650A1", "about": "“COMPOSITIONS AND METHODS FOR DELIVERY OF POLYMER/BIOMACROMOLECULE CONJUGATES” (THE REGENTS OF THE UNIVERSITY OF MICHIGAN, priority 2017, published 2019)", "key": {"[1]": {"tested_on": "MC38 tumors", "test": "In vivo cancer immunotherapy against established MC38 tumors: tumor volume and survival", "set-up": "species or system C57BL/6 mice", "conditions": "three weekly intratumoral injections", "method": "(§1) C57BL/6 mice were subcutaneously injected with 5×10^5 MC38 colon carcinoma cells (a gift from W. Zou, University of Michigan) into the right flank and randomly sorted for treatment after 9 days when the tumor volumes reached approximately 50-70 mm^3. Fifty μl PBS solution of ASMTNMELM, CpG, ASMTNMELM+CpG, PEI-SS-CSSASMTNMELM+CpG (10 μg ASMTNMELM and 15 μg CpG), or blank PBS (50 μl) were directly injected into tumor every week for total three times. PBMCs were collected on day 7 after the first sample injection and tetramer staining was performed for flow cytometric analysis of neo-antigen-specific CD8+ T cells. The sizes of the tumors were measured every three days using a digital caliper, and the tumor volume was estimated by ellipsoidal calculation as V=(width)^2×length×π/6. The mice were euthanized when the tumors reached the maximum permitted size (1.5 cm in any dimension) or ulcerations occurred."}, "[2]": {"tested_on": "neo-antigen-specific CD8+ T cells", "test": "Intratumoral injection into established MC38 tumors: tetramer staining of PBMCs", "type": "in vivo, C57BL/6 mice", "conditions": "MC38 tumor-bearing mice, day 7 after first injection", "method": "as §1"}, "[3]": {"tested_on": "OT-I T cells", "test": "Proliferation of antigen-specific CD8+ T cells in vitro (CFSE dilution)", "type": "cell-based, OT-I mice", "conditions": "BMDCs pre-activated 24 h, 0.5 nmol SIINFEKL/ml, in the presence of 0.5 μg/ml CpG; co-culture 3 days", "method": "SIINFEKL-specific CD8^+ T cells were isolated from OT-I mice using an EasySep™ Mouse CD8^+ T Cell Isolation Kit (STEMCELL Technologies, Cambridge, Mass.), and stained by CFSE. 5×10^4 BMDCs were seeded into 96-well plates, and incubated with PGA120k conjugates (1% modification of carboxyl groups, 0.5 nmol SIINFEKL/ml) w/or w/o 0.5 μg/ml CpG for 24 h. BMDCs were then washed by PBS, followed by co-culture with 5×10^4 CFSE-labeled OT-I T cells for 3 days. Cells were then harvested, blocked with anti-CD16/32, and stained with anti-CD8-APC on ice for 30 min. Cells were washed and resuspended in 2 μg/ml DAPI solution and analyzed for fluorescence dilutions of CFSE by flow cytometry."}, "[4]": {"tested_on": "BMDCs", "test": "BMDC activation: expression of co-stimulatory markers CD86 and CD40 by flow cytometry", "type": "cell-based, C57BL/6 mice", "conditions": "conjugate alone, w/o CpG; 1% modification, 2 nmol SIINFEKL/ml, 24 h", "method": "(§2) Femur and tibia were harvested from C57BL/6 mice. Cells were collected by flushing bone marrow with a syringe, passing the cell suspension through a cell strainer (mesh size=40 μm), followed by centrifugation (200×g, 5 min). Cells were then seeded into non-tissue culture treated petri-dishes at a density of 2×10^6 cells/ml in DC culture media (RPMI 1640 supplemented with 10% FBS, 1% penicillin-streptomycin, 50 μM β-mercaptoethanol, and 20 ng/ml GM-CSF), cultured at 37° C. with 5% CO2. Culture media were refreshed on days 3, 6, and 8, and BMDCs were used on days 8-12.\n(§3) BMDCs were seeded at a density of 8×10^5 cells/ml into 12-well plates. Cells were incubated with PGA120k-MAL-CSSSIINFEKL or PGA120k-SS-CSSSIINFEKL (1% modification of carboxyl groups, 2 nmol SIINFEKL/ml) w/or w/o 0.5 μg/ml CpG in 1 ml BMDC culture media for 24 h. Cells were harvested, blocked with anti-CD16/32 at room temperature for 10 min, and then stained with anti-CD11c-PECy7, anti-CD40-APC, anti-CD86-PE, or anti-SIINFEKL-H-2K^b-PE at room temperature for 30 min. Finally, cells were washed and resuspended in 2 μg/ml DAPI solution and analyzed by a flow cytometer (Cyan 5, Beckman Coulter)."}, "[5]": {"tested_on": "BMDCs", "test": "Antigen cross-presentation: presentation of SIINFEKL on DCs by flow cytometry", "type": "cell-based, C57BL/6 mice", "conditions": "2 nmol SIINFEKL/ml, 24 h", "method": "as §2, §3"}, "[6]": {"tested_on": "BMDCs", "test": "BMDC cytotoxicity (CCK-8 viability)", "type": "cell-based", "conditions": "24 h incubation, concentration as high as 100 μg/ml", "method": "(§4) BMDCs were plated at a density of 1×10^5 cells/well in 96 well plates in RPMI 1640 supplemented with 10% FBS and 1% PS, and incubated overnight at 37° C. under 5% CO2. For cytotoxicity assessment, cells were incubated with either free form (CSSASMNTMELM) or PEI conjugate (PEI-SS-CSSASMTNMELM) of the neo-antigen peptide for 24 h at concentrations of 1, 5, 10, 20, 50, 100 μg/ml. The viability was measured by adding CCK-8 to each well of the plate according to manufacturer's instruction followed by absorbance measurement at 450 nm using a microplate reader after 2 h incubation. Relative viability was calculated as to the ratio of the absorbance to the non-sample treated cells (0 μg/ml). To investigate BMDC activation, cells were treated with PBS or PEI-SS-CSSASMTNMELM, PBS+CpG, PEI-SS-CSSASMTNMELM+CpG (2 μg/ml PEI-SS-CSSASMTNMELM and 1 μg/ml CpG) for 2 h. The fresh cell culture media were placed after sample washing and collected for cytokine analysis after further 24 h incubation. The concentration of IL-12p70 in the media was measured using ELISA kit by following the manufacturer's instruction."}, "[7]": {"tested_on": "BMDCs", "test": "BMDC activation: IL-12p70 secretion (ELISA)", "type": "cell-based", "conditions": "alone, w/o CpG; 2 μg/ml, 2 h", "method": "as §4"}}, "note": "Where no end group is shown, it is not given here."}
{"substance": "5′-tccatgacgttcctgacgtt-3′ [CpG]", "values": [{"measurement": "survival rates", "setting": "[1]", "value": "~20", "unit": "%"}, {"measurement": "tumor progression", "setting": "[1]", "value": "slowed tumor progression"}, {"measurement": "neo-antigen-specific CD8+ T cell response", "setting": "[2]", "value": "failed to elicit"}]}
{"substance": "ASMTNMELM [neo-antigen]", "values": [{"measurement": "time by which all animals succumbed to tumors", "setting": "[1]", "value": "≤ 50", "unit": "days"}, {"measurement": "neo-antigen-specific CD8+ T cell response", "setting": "[2]", "value": "failed to elicit"}]}
{"substance": "SIINFEKL [soluble peptide, model antigen peptide]", "values": [{"measurement": "proliferation of OT-I T cells", "setting": "[3]", "value": "> 60", "unit": "%"}]}
{"substance": "PGA-SS-CSSSIINFEKL: 120 kD poly(L-glutamic acid) linked by reduction-sensitive disulfide bond to peptide CSSSIINFEKL, 1% modification of carboxyl groups (not fully specified; poly(L-glutamic acid) 120 kD disulfide conjugate)", "values": [{"measurement": "CD40 expression in DCs", "setting": "[4]", "value": "slightly increased CD40 expression"}, {"measurement": "presentation of SIINFEKL on DCs", "setting": "[5]; w/o CpG, compared with soluble peptide and PGA-MAL-CSSSIINFEKL", "value": "significantly higher presentation of SIINFEKL on DCs"}, {"measurement": "presentation of SIINFEKL on DCs", "setting": "[5]; with 0.5 μg/ml CpG", "value": "further increased by CpG"}]}
{"substance": "PEI-SS-CSSASMTNMELM: PEI (MW 25,000), PEGylated, disulfide-linked via SPDP to neo-antigen peptide CSSASMTNMELM (PEGylated PEI disulfide-linked via SPDP)", "values": [{"measurement": "BMDC viability", "setting": "[6]", "value": "maintained their viability"}, {"measurement": "activation of BMDCs (secretion of IL-12p70)", "setting": "[7]", "value": "failed to induce activation of BMDCs"}]}
{"substance": "PGA-MAL-CSSSIINFEKL: 120 kD poly(L-glutamic acid) linked by non-sensitive maleimide-thiol bond to peptide CSSSIINFEKL, 1% modification of carboxyl groups (not fully specified; poly(L-glutamic acid) 120 kD maleimide-thiol conjugate)", "values": [{"measurement": "activation of DCs (expression of CD86 and CD40)", "setting": "[4]", "value": "failed to activate DCs"}]}
{"substance": "CSSASMTNMELM [free peptide, CSSASMTNMELM]", "values": [{"measurement": "BMDC viability", "setting": "[6]", "value": "maintained their viability"}]}
